Assay results: patent publication US11814372B2, “Agonists of EPHA and their uses” (CASE WESTERN RESERVE UNIVERSITY, priority 2017, dated 2023)

Assays:
Assay type in all cases: cell-based
EphB4 = biological target: T1, EphB4 (Homo sapiens, UniProt P54760); assay: Activation of endogenous EphB4 in HEK 293 vector control cells
T1 construct: host or cells: HEK 293 vector control cells
T1 sequence (P54760 16-987): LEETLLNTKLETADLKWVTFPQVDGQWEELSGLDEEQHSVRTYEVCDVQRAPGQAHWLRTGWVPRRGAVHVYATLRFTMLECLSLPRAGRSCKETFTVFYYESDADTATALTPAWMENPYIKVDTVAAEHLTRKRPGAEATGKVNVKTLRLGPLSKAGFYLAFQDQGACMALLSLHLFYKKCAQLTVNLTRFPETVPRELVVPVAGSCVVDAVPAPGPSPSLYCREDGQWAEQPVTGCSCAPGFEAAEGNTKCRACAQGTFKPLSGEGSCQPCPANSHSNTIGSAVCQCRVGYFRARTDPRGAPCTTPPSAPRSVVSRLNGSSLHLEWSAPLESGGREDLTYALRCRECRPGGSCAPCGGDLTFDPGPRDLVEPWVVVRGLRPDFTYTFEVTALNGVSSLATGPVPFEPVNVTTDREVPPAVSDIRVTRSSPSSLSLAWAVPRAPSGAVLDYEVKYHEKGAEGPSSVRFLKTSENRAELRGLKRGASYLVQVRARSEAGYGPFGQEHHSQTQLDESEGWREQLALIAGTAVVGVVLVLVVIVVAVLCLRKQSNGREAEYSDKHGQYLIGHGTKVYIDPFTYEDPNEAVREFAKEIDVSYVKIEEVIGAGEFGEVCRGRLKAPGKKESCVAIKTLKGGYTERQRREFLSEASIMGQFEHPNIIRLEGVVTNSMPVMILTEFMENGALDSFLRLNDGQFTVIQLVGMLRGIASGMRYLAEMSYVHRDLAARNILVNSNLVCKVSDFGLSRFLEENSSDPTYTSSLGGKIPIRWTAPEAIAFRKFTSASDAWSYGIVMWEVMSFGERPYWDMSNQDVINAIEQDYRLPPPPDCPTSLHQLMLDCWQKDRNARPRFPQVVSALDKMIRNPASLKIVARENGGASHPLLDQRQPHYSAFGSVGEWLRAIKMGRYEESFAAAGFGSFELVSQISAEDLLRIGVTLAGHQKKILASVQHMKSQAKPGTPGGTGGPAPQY

EphA2 [1] = biological target: T2, EphA2 (Homo sapiens, UniProt P29317); assay: EphA2 activation in MDA-231-A2 cells (pEphA/B immunoblot, EphA2 immunoprecipitation); design: expressed in transfected cells; host or cells: MDA-MB-231 (MDA-231-A2), HEK 293 (HEK 293-A2), A172 (A172-A2), U373 (U373-A2)
Method: Cells were plated in 24-well dishes at a density of 100,000 cells/well and grown for 24 hours prior to stimulation with appropriate compounds and ephrins for the given amounts of time. Compounds were prepared in DMSO at 500 times the final concentrations and 0.2% DMSO was used as vehicle control. Following treatment, cells were lysed directly in SDS Gel Loading Buffer and immunoblotted as described previously. Immunoprecipitation and immunofluorescence staining was performed as described. For immunoprecipitation, 300,000 cells/well were plated in 6-well dishes and lysed in modified RIPA Buffer (20 mM Tris-HCl pH 7.4, 20 mM NaF, 150 mM NaCl, 10% glycerol, 0.1% SDS, 0.5% DCA, 2 mM EDTA, 1% Triton X-100) following treatment. Either […] of ephrin-A1-Fc, or […] of EphA2 mouse monoclonal antibody (Clone D7, Millipore) were used, and mouse IgG was used as a negative control for EphA2 IP. To identify small molecule agonists for EphA2, we took a structure-based in silico screening approach. […] This notion was confirmed recently by determination of the crystal structure of the EphA2/ephrin-A1 complex (FIG. 1B). The size falls in the range of common drugs, making EphA2 LBD a desirable target for drug discovery. Toward this end, we initiated in silico screening to search for small molecules that interact favorably with the ligand-binding pocket of EphA2 derived from molecular modeling before the crystal structure became available. Multiple conformations for each structure were generated with OMEGA (OpenEye) and each conformation was docked individually using DOCK. Our initial screening of over 750,000 compounds identified a number of small molecules that could potentially interact with the ligand-binding pocket. The commercially available top-scoring compounds were screened for their ability to induce EphA2 activation in MDAMB-231 breast cancer cells. Because MDA-MB-231 cells express endogenous EphA2 as well as other Eph receptors, including EphA1, we overexpressed EphA2 in order to minimize the contribution from other Eph receptors in our analysis. […] Total cell lysates were probed with a previously described antibody that recognizes the activated Eph receptors.

EphA2 [2] = biological target: T2, EphA2; assay: EphA2 activation in HEK 293-A2 cells (pEphA/B immunoblot); design: expressed in transfected cells; host or cells: HEK 293 (HEK 293-A2)
Method: Cells were plated in 24-well dishes at a density of 100,000 cells/well and grown for 24 hours prior to stimulation with appropriate compounds and ephrins for the given amounts of time. Compounds were prepared in DMSO at 500 times the final concentrations and 0.2% DMSO was used as vehicle control. Following treatment, cells were lysed directly in SDS Gel Loading Buffer and immunoblotted as described previously. Immunoprecipitation and immunofluorescence staining was performed as described. For immunoprecipitation, 300,000 cells/well were plated in 6-well dishes and lysed in modified RIPA Buffer (20 mM Tris-HCl pH 7.4, 20 mM NaF, 150 mM NaCl, 10% glycerol, 0.1% SDS, 0.5% DCA, 2 mM EDTA, 1% Triton X-100) following treatment. Either […] of ephrin-A1-Fc, or […] of EphA2 mouse monoclonal antibody (Clone D7, Millipore) were used, and mouse IgG was used as a negative control for EphA2 IP.
To determine whether the EphA2 agonist activity of doxazosin is cell-context specific, we evaluated the effects of doxazosin on additional cell types. We first utilized HEK 293 cells overexpressing EphA2 (HEK 293-A2) that we described previously. […] Next we tested PC-3 cells that express high levels of endogenous EphA2 receptor. […] We next evaluated the time-course of activation in both MDA-231-A2 and HEK 293-A2 cells upon treatment with a single 50 μM dose of doxazosin.

[3] = MDA-231-A2 cells, single 50 μM dose

T2 sequence (P29317 24-976): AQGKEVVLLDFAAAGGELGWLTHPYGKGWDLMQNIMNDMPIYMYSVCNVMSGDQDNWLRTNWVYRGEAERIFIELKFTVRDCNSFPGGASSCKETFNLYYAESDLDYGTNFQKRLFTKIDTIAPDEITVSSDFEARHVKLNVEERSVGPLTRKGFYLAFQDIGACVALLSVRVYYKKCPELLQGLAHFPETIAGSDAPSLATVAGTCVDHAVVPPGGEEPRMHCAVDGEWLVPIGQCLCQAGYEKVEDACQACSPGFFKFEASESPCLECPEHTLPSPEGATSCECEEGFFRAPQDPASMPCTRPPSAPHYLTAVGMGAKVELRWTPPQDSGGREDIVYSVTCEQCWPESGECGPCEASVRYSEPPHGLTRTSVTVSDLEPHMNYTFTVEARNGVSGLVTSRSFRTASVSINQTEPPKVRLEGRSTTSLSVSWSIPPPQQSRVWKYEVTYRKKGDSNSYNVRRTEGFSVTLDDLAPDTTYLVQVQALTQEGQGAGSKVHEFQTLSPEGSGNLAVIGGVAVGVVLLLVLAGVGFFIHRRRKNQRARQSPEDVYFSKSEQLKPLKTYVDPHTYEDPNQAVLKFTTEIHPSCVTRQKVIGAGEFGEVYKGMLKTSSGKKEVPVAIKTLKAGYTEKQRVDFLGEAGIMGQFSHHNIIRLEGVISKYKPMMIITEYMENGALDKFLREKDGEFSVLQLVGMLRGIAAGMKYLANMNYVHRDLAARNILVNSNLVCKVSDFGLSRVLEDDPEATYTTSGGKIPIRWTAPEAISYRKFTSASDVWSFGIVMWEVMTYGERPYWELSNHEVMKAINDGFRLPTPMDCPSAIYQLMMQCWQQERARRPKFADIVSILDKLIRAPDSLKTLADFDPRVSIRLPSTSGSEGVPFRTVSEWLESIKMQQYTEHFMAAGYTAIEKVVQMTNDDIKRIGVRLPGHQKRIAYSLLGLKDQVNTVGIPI

## COc1cc2nc(N3CCN(C(=O)C4COc5ccccc5O4)CC3)nc(N)c2cc1OC (stereo not shown) [doxazosin]
EphB4
  endogenous EphB4 activation: not activated
EphA2 [1]; MDA-231-A2 cells pretreated with 1 μM phenoxybenzamine, then 1 hour treatment
  EphA2 activation after phenoxybenzamine pretreatment versus no pretreatment: No difference in EphA2 activation
EphA2 [1]; MDA-231-A2 cells, compounds at 50 µM, 30 minutes
  EphA2 activation, screening of top-scoring compounds: activated EphA2 to the greatest extent
EphA2 [1]; MDA-231-A2 cells, high doses
  EphA2 level after treatment: degradation of EphA2
EphA2 [1]; MDA-231-A2 cells, multiple doses, 30 minutes
  EphA2 activation, dose-response: dose-dependent manner
EphA2 [1]; [3]
  earliest time of significant EphA2 activation: 5 min
  time of peak EphA2 activation: around 30 min
EphA2 [2]; HEK 293-A2 cells, 30 minutes
  concentration at which significant EphA2 activation starts: 25 µM
EphA2 [2]; HEK 293-A2 cells, single 50 μM dose
  time at which EphA2 activation became evident: 10 min
EphA2 [2]; HEK 293 cells overexpressing EphA2, 60 minutes
  EphA2 kinase activation, Eph receptor panel: activated both EphA2 and EphA4 kinases
